{"source": "patent US20120165576A1", "about": "“USE OF ERYTHRITOL FOR THE PREVENTION OR TREATMENT OF HYPERTENSION” (priority 2009, published 2012)", "key": {"[1]": {"tested_on": "sections of thoracic aorta (aortic rings)", "assay": "Aorta reactivity measurements: isolated aortic rings of rats after 21 days of erythritol in drinking water", "format": "in vivo, Wistar rats", "details": "for CAR: relaxation induced by 100 μM carbachol / PE: Contraction induced by 10 μM phenylephrine / SNP: Relaxation induced by 100 μM SNP after stable response to 100 μM carbachol / Tot. relax: Relaxation induced by 100 μM carbachol followed by 100 μM SNP / SNP fraction: Contribution of 100 μM SNP to the total relaxation: 1 g erythritol/kg/day in drinking water, 21 days, mean ± SEM"}, "[2]": {"tested_on": "red blood cell suspension", "assay": "AAPH-induced hemolysis of a red blood cell suspension", "format": "cell-based", "details": "erythritol 0-50 mM, AAPH 50 mM, 37° C., FIG. 3"}, "[3]": {"tested_on": "manganese superoxide dismutase (SOD2)", "assay": "SOD2 expression in endothelial cells by qPCR", "format": "cell-based", "details": "human umbilical vein endothelial cells (CRL-1730), erythritol 5 mM, 24 hours", "procedure": "The exposure of endothelial cells to erythritol results in a increase in manganese superoxide dismutase (SOD2) transcription (FIG. 4). Cultured human umbilical vein endothelial cells (CRL-1730, which are available from ATCC) were incubated under standard conditions with erythritol (5 mM, 24 hours). Exposure to erythritol induced or stimulated a 9.4 fold increase in the expression of SOD2 as determined by qPCR (FIG. 4).\nAfter incubation, RNA was isolated from Qiazol suspended cells according to the manufacturer's protocol and quantified using a nanodrop. Reverse transcription reaction was performed using 500 ng of total RNA, which was reverse-transcribed into cDNA using iScript™ cDNA synthesis kit. Next, real time PCR was performed with a BioRad MyiQ iCycler Single Color RT-PCR detection system using Sensimix™ Plus SYBR and Fluorescein, 5 μl diluted (10×) cDNA, and 0.3 μM primers in a total volume of 25 μl. PCR was conducted as follows: denaturation at 95° C. for 3 minutes, followed by 40 cycles of 95° C. for 15 seconds and 60° C. for 45 seconds. After PCR a melt curve (60-95° C.) was produced for product identification and purity. β-actin was included as internal control. Data were analysed using the MyIQ software system (Biorad) and were expressed as relative gene expression (fold change) using the 2^ΔΔCt method."}, "[4]": {"details": "cited from earlier work"}, "[5]": {"details": "cited from earlier work", "remark": "listed apart in the source"}, "[6]": {"details": "group DE: STZ diabetic rats, N = 4"}, "[7]": {"details": "group NE: normoglycemic rats, N = 5"}, "[8]": {"details": "clinical testing, oral consumption"}}, "note": "“Also recorded” adds a separate entry of the source. Like-named read-outs stand apart in the source and are kept apart here. Marks after values point to notes of the source that are not given here.", "data": [{"smiles": "OCC(O)C(O)CO", "note": "(stereo not shown) [erythritol, 1,2,3,4-butanetetrol]", "values": [{"measurement": "Relaxation response of aortic rings to carbachol (in words)", "setting": "[1]; diabetic rats consuming erythritol (DE), 1 g/kg/day, compared with normoglycemic rats", "result": "essentially the same as the relaxation response of normoglycemic rats; also recorded: identical to that observed in the normoglycemic rats; also recorded: higher and at the same level as found in the aortic rings of the rats of groups N and NE"}, {"measurement": "CAR: relaxation induced by 100 μM carbachol", "setting": "[1]; [6]", "result": "0.61 ± 0.07", "unit": "g"}, {"measurement": "PE: Contraction induced by 10 μM phenylephrine", "setting": "[1]; [6]", "result": "0.60 ± 0.07", "unit": "g"}, {"measurement": "SNP: Relaxation induced by 100 μM SNP after stable response to 100 μM carbachol", "setting": "[1]; [6]", "result": "0.14 ± 0.03", "unit": "g"}, {"measurement": "Tot. relax: Relaxation induced by 100 μM carbachol followed by 100 μM SNP", "setting": "[1]; [6]", "result": "0.75 ± 0.09", "unit": "g"}, {"measurement": "SNP fraction: Contribution of 100 μM SNP to the total relaxation", "setting": "[1]; group DE: STZ diabetic rats, N = 4, p < 0.05 compared to D", "result": "17.8 ± 3.1^b %"}, {"measurement": "CAR: relaxation induced by 100 μM carbachol", "setting": "[1]; [7]", "result": "0.60 ± 0.07", "unit": "g"}, {"measurement": "PE: Contraction induced by 10 μM phenylephrine", "setting": "[1]; [7]", "result": "0.70 ± 0.06", "unit": "g"}, {"measurement": "SNP fraction: Contribution of 100 μM SNP to the total relaxation", "setting": "[1]; [7]", "result": "24.7 ± 5.5^ %"}, {"measurement": "SNP: Relaxation induced by 100 μM SNP after stable response to 100 μM carbachol", "setting": "[1]; [7]", "result": "0.21 ± 0.06", "unit": "g"}, {"measurement": "Tot. relax: Relaxation induced by 100 μM carbachol followed by 100 μM SNP", "setting": "[1]; [7]", "result": "0.81 ± 0.09", "unit": "g"}, {"measurement": "Effect on carbachol concentration-response curve (in words)", "setting": "[1]; normoglycemic rats consuming erythritol (NE), 1 g/kg/day, FIG. 1", "result": "did not have a significant effect"}, {"measurement": "Inhibition of AAPH-induced hemolysis (in words)", "setting": "[2]", "result": "inhibited hemolysis in a concentration-dependent manner"}, {"measurement": "Lagtime (t50, time to reach 50% hemolysis) of AAPH-induced hemolysis (in words)", "setting": "[2]", "result": "concentration-dependently shifted the curve to the right; also recorded: concentration-dependent increase"}, {"measurement": "Increase in the expression of SOD2 as determined by qPCR", "setting": "[3]", "result": 9.4, "unit": "fold"}, {"measurement": "Time until excretion with the urine is complete", "setting": "[4]; after administration", "result": "about 3 days"}, {"measurement": "Systemic metabolism (in words)", "setting": "[4]; in vivo", "result": "not systemically metabolized"}, {"measurement": "Absorption from the gut (in words)", "setting": "[4]; oral", "result": "rapidly and virtually completely absorbed"}, {"measurement": "Well tolerated bolus (single) dose", "setting": "[5]; [8]", "result": "up to 50 grams"}, {"measurement": "Well tolerated daily dose", "setting": "[5]; [8]", "result": "up to 80 grams"}, {"measurement": "Well tolerated bolus (single) dose", "setting": "[5]; clinical testing, oral consumption, listed as Erythritol", "result": "≤ 50", "unit": "grams"}, {"measurement": "Digestive side-effects (in words)", "setting": "[5]; even after consumption of large quantities", "result": "no digestive side-effects"}]}]}
